This note sets out measurements from BindingDB's records for doi:10.1016/j.bmcl.2005.03.076 (Janssen-Cilag, 2005).

In general, Ki refers to the equilibrium dissociation constant of an inhibitor or competing ligand from its target. Low values mean a stronger hold on the target, high ones a looser hold on the target.

For this test, the target named is Sodium-dependent noradrenaline transporter (Rattus norvegicus). The test can be described thus: In vitro binding affinity against norepinephrine transporter using [3H]-nisoxetine as radioligand.

Take `CN(C)c1ccc2on(C[C@@H]3C[C@H]4c5ccccc5Oc5ccc(Br)cc5[C@H]4O3)c2c1` [[8-((2S,3aS,12bS)-11-Bromo-2,3,3a,12b-tetrahydro-1,8-dioxa-dibenzo[e,h]azulen-2-ylmethyl)-7-oxa-8-aza-bicyclo[4.2.0]octa-1(6),2,4-trien-3-yl]-dimethyl-amine]: the Ki was determined as 2250 nM.
As for `Nc1ccc2on(C[C@@H]3C[C@H]4c5ccccc5Oc5ccc(Br)cc5[C@H]4O3)c2c1` [8-((2S,3aS,12bS)-11-Bromo-2,3,3a,12b-tetrahydro-1,8-dioxa-dibenzo[e,h]azulen-2-ylmethyl)-7-oxa-8-aza-bicyclo[4.2.0]octa-1(6),2,4-trien-3-ylamine], the figure is 620 nM.
As for `Brc1ccc2c(c1)[C@H]1O[C@H](Cn3oc4ccc(CN5CCOCC5)cc43)C[C@H]1c1ccccc1O2` [8-((2S,3aS,12bS)-11-Bromo-2,3,3a,12b-tetrahydro-1,8-dioxa-dibenzo[e,h]azulen-2-ylmethyl)-3-morpholin-4-ylmethyl-7-oxa-8-aza-bicyclo[4.2.0]octa-1(6),2,4-triene], the figure is 3110 nM.
